Source: patent US8859541B2, “6-alkynylpyridines” (Boehringer Ingelheim International GmbH, priority 2012, dated 2014)
pIC50: −log10 of the molar value.

Legend:
[1] = biological target: T1, XIAP BIR3 (Homo sapiens, UniProt P98170); assay: XIAP BIR3 binding assay (DELFIA), displacement of SMAC peptide; settings: GST-fusion BIR3 domain (aa 241 to 356) 10 nM, SMAC peptide 10 nM; activity of the (S)-isomers
T1 construct: covering amino acids 241 to 356; XIAP BIR3; made in house; host or cells: E. coli
T1 sequence (P98170 241-356): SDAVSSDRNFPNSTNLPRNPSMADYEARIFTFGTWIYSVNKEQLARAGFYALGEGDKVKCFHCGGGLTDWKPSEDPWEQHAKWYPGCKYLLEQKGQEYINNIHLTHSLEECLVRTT
Method in brief: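 Each BIR3 domain (10 nM) incubated with biotinylated N-terminal SMAC peptide (10 nM) and compound for 1 h at room temp in Tris/NaCl buffer with BSA, DTT and Triton X-100. Captured on streptavidin plates; bound BIR3 detected by Eu-labelled anti-GST time-resolved fluorescence, giving IC50 values.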

[2] = biological target: T2, cIAP1 BIR3 (Homo sapiens, UniProt Q13490); assay: cIAP1 BIR3 binding assay (DELFIA), displacement of SMAC peptide; settings: GST-fusion BIR3 domain (aa 256 to 363) 10 nM, SMAC peptide 10 nM; activity of the (S)-isomers
T2 construct: covering amino acids 256 to 363; cIAP1 BIR3; made in house; host or cells: E. coli
T2 sequence (Q13490 256-363): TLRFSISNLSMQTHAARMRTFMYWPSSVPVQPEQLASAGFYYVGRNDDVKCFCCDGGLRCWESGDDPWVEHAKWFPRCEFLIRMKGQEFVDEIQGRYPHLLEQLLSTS
Protocol: Biological Methods XIAP BIR3 and cIAP1 BIR3 Binding Assays (DELFIA)
Peptide […]-Lys(Biotin), representing the N-terminus of mature human SMAC (SMAC peptide), was used as interaction partner in the protein-peptide interaction assay.
BIR3 domains (10 nM) were incubated with SMAC peptide (10 nM) in Assay Buffer (50 mM Tris, 120 mM NaCl, 0.1% BSA, 1 mM DTT, 0.05% TritonX100) for one hour at room temperature in the presence of inhibitiory compounds. The assay mixture was transferred to a strepatvidin coated plate and incubated for one hour at room temperature to allow binding of the biotinylated peptide and associated BIR3 domains to the plate. After several washing steps Eu labeled anti-GST antibody (e.g. Perkin Elmer DELFIA Eu-N1-antiGST AD0250) was added to detect BIR3 domain-SMAC peptide interactions according to Perkin Elmer's instructions. […] Time resolved Europium fluoresecence was measured in a Wallac Victor using Standard assay settings.
DELFIA assay results were plotted against compound concentrations and Software GraphPad Prizm was used to calculate half maximal inhibitory concentrations (IC50 values).

Compound | pIC50 [1] | pIC50 [2]
CNC(C)C(=O)Nc1ccc(-c2c(-c3ccncc3)nc3cc(C)ccn23)c(C#Cc2ccc3c(c2)OCC(=O)N3C)n1 (stereo not shown) [Example 94, 2-(methylamino)-N-[6-[2-(4-methyl-3-oxo-1,4-benzoxazin-7-yl)ethynyl]-5-(7-methyl-2-pyridin-4-ylimidazo[1,2-a]-pyridin-3-yl)pyridin-2-yl]-propanamide] | 6.97 | 9.00
CNC(C)C(=O)Nc1ccc(-c2c(-c3ccncc3)nc3cc(C)ccn23)c(C#Cc2ccc3nccn3c2)n1 (stereo not shown) [Example 95, N-[6-(2-imidazo[1,2-a]pyridin-6-ylethynyl)-5-(7-methyl-2-pyridin-4-ylimidazo[1,2-a]-pyridin-3-yl)pyridin-2-yl]-2-(methylamino)propanamide] | 7.01 | 9.00
CNC(C)C(=O)Nc1ccc(-c2c(-c3ccncc3)nc3cc(C)ccn23)c(C#Cc2ccc(OC)c3ncccc23)n1 (stereo not shown) [Example 96, N-[6-[2-(8-methoxyquinolin-5-yl)ethynyl]-5-(7-methyl-2-pyridin-4-ylimidazo[1,2-a]-pyridin-3-yl)pyridin-2-yl]-2-(methylamino)propanamide] | 7.08 | 9.00
CC(N)C(=O)Nc1ccc(-c2cncc(Oc3ccccc3)c2)c(C#Cc2ccccc2)n1 (stereo not shown) [Example 100, 2-amino-N-[5-(5-phenoxypyridin-3-yl)-6-(2-phenylethynyl)pyridin-2-yl]propanamide] | 6.34 | 6.49
Cc1ccccc1-c1ccc(NC(=O)C(C)N)nc1C#Cc1ccccc1 (stereo not shown) [Example 108, 2-amino-N-[5-(2-methylphenyl)-6-(2-phenylethynyl)pyridin-2-yl]-propanamide] | 5.79 | 6.76
CC(N)C(=O)Nc1ccc(-c2cccc(C#N)c2)c(C#Cc2ccccc2)n1 (stereo not shown) [Example 113, 2-amino-N-[5-(3-cyanophenyl)-6-(2-phenylethynyl)pyridin-2-yl]-propanamide] | 6.64 | 7.17
CNC(C)C(=O)Nc1ccc(-c2cccc(NC(C)=O)c2)c(C#Cc2ccccc2)n1 (stereo not shown) [Example 118, N-[5-(3-acetamidophenyl)-6-(2-phenylethynyl)pyridin-2-yl]-2-(methylamino)propanamide] | 6.54 | 7.04
CNC(C)C(=O)Nc1ccc(-c2cncc(OC)c2)c(C#Cc2ccccc2)n1 (stereo not shown) [Example 121, N-[5-(5-methoxypyridin-3-yl)-6-(2-phenylethynyl)pyridin-2-yl]-2-(methylamino)propanamide] | 7.01 | 7.51
CNC(C)C(=O)Nc1ccc(-c2cncc(Cl)c2)c(C#Cc2ccccc2)n1 (stereo not shown) [Example 122, N-[5-(5-chloropyridin-3-yl)-6-(2-phenylethynyl)pyridin-2-yl]-2-(methylamino)propanamide] | 6.83 | 7.64
CNC(C)C(=O)Nc1ccc(-c2cncc(C#N)c2)c(C#Cc2ccccc2)n1 (stereo not shown) [Example 123, N-[5-(5-cyanopyridin-3-yl)-6-(2-phenylethynyl)pyridin-2-yl]-2-(methylamino)propanamide] | 6.92 | 7.60
CCOc1ccc(-c2ccc(NC(=O)C(C)NC)nc2C#Cc2ccccc2)cn1 (stereo not shown) [Example 125, N-[5-(6-ethoxypyridin-3-yl)-6-(2-phenylethynyl)pyridin-2-yl]-2-(methylamino)propanamide] | 6.24 | 6.88
CNC(C)C(=O)Nc1ccc(-c2ccc(OC)nc2OC)c(C#Cc2ccccc2)n1 (stereo not shown) [Example 126, N-[5-(2,6-dimethoxypyridin-3-yl)-6-(2-phenylethynyl)pyridin-2-yl]-2-(methylamino)propanamide] | 6.00 | 6.78
CNC(C)C(=O)Nc1ccc(-c2cncc(C)c2)c(C#Cc2ccccc2)n1 (stereo not shown) [Example 127, 2-(methylamino)-N-[5-(5-methylpyridin-3-yl)-6-(2-phenyl-ethynyl)pyridin-2-yl]propanamide] | 6.89 | 7.68
CNC(C)C(=O)Nc1ccc(-c2ccc(N3CCCC3)nc2)c(C#Cc2ccccc2)n1 (stereo not shown) [Example 129, 2-(methylamino)-N-[6-(2-phenyl-ethynyl)-5-(6-pyrrolidin-1-ylpyridin-3-yl)pyridin-2-yl]-propanamide] | 6.36 | 7.01
CNC(C)C(=O)Nc1ccc(-c2cccc3ccccc23)c(C#Cc2ccccc2)n1 (stereo not shown) [Example 130, 2-(methylamino)-N-[5-naphthalen-1-yl-6-(2-phenyl-ethynyl)pyridin-2-yl]propanamide] | 5.49 | 6.76
CNC(C)C(=O)Nc1ccc(-c2cc(F)cc(C(=O)OC)c2)c(C#Cc2ccccc2)n1 (stereo not shown) [Example 132, methyl 3-fluoro-5-[6-[[2-(methyl-amino)propanoyl]amino]-2-(2-phenylethynyl)pyridin-3-yl]-benzoate] | 6.49 | 7.01
CNC(C)C(=O)Nc1ccc(-c2cnn3ccccc23)c(C#Cc2ccccc2)n1 (stereo not shown) [Example 138, 2-(methylamino)-N-[6-(2-phenyl-ethynyl)-5-pyrazolo[1,5-a]-pyridin-3-ylpyridin-2-yl]propan-amide] | 7.26 | 7.92
CNC(C)C(=O)Nc1ccc(-c2cscc2C#N)c(C#Cc2ccccc2)n1 (stereo not shown) [Example 145, N-[5-(4-cyanothiophen-3-yl)-6-(2-phenylethynyl)pyridin-2-yl]-2-(methylamino)propanamide] | 6.50 | 7.03
CNC(C)C(=O)Nc1ccc(-c2ccc(C)nc2)c(C#Cc2ccccc2)n1 (stereo not shown) [Example 147, 2-(methylamino)-N-[5-(6-methylpyridin-3-yl)-6-(2-phenyl-ethynyl)pyridin-2-yl]propanamide] | 6.90 | 7.49
CNC(C)C(=O)Nc1ccc(-c2cncc(-c3ccccc3)c2)c(C#Cc2ccccc2)n1 (stereo not shown) [Example 149, 2-(methylamino)-N-[6-(2-phenyl-ethynyl)-5-(5-phenylpyridin-3-yl)pyridin-2-yl]propanamide] | 6.71 | 7.10
CNC(C)C(=O)Nc1ccc(-c2cnc(N3CCOCC3)nc2)c(C#Cc2ccccc2)n1 (stereo not shown) [Example 161, 2-(methylamino)-N-[5-(2-morpholin-4-ylpyrimidin-5-yl)-6-(2-phenylethynyl)pyridin-2-yl]-propanamide] | 6.99 | 7.66
Cc1noc(C)c1-c1ccc(NC(=O)C(C)N)nc1C#Cc1ccccc1 (stereo not shown) [Example 165, 2-amino-N-[5-(3,5-dimethyl-1,2-oxazol-4-yl)-6-(2-phenylethynyl)-pyridin-2-yl]propanamide] | 7.17 | 9.00
[2H]C([2H])([2H])NC(C)C(=O)Nc1ccc(-c2c(C)noc2C)c(C#Cc2ccccc2)n1 (stereo not shown) [Example 168, N-[5-(3,5-dimethyl-1,2-oxazol-4-yl)-6-(2-phenylethynyl)pyridin-2-yl]-2-(trideuteriomethylamino)propanamide] | 6.82 | 8.52
CNC(C)C(=O)Nc1ccc(-c2c(C)nc3ccccn23)c(C#Cc2ccccc2)n1 (stereo not shown) [Example 174, 2-(methylamino)-N-[5-(2-methyl-imidazo[1,2-a]pyridin-3-yl)-6-(2-phenylethynyl)pyridin-2-yl]-propanamide] | 7.29 | 9.00
CNC(C)C(=O)Nc1ccc(-c2ccc3c(c2)C(=O)NC3=O)c(C#Cc2ccccc2)n1 (stereo not shown) [Example 175, N-[5-(1,3-dioxoisoindol-5-yl)-6-(2-phenylethynyl)pyridin-2-yl]-2-(methylamino)propanamide] | 6.99 | 7.80
CNC(C)C(=O)Nc1ccc(-c2cc(C(=O)OC)cc(C(=O)OC)c2)c(C#Cc2ccccc2)n1 (stereo not shown) [Example 176, dimethyl 5-[6-[[2-(methylamino)-propanoyl]amino]-2-(2-phenyl-ethynyl)pyridin-3-yl]benzene-1,3-dicarboxylate] | 7.30 | 7.64
CNC(C)C(=O)Nc1ccc(-c2ccc3c(c2)C(=O)c2ccccc2-3)c(C#Cc2ccccc2)n1 (stereo not shown) [Example 177, 2-(methylamino)-N-[5-(9-oxofluoren-2-yl)-6-(2-phenyl-ethynyl)pyridin-2-yl]propanamide] | 6.47 | 7.04
CNC(=O)c1ccc(-c2ccc(NC(=O)C(C)NC)nc2C#Cc2ccccc2)cn1 (stereo not shown) [Example 182, N-methyl-5-[6-[[2-(methyl-amino)propanoyl]amino]-2-(2-phenylethynyl)pyridin-3-yl]-pyridine-2-carboxamide] | 6.87 | 7.44
CNC(C)C(=O)Nc1ccc(-c2nnc(Cl)c3ccccc23)c(C#Cc2ccccc2)n1 (stereo not shown) [Example 184, N-[5-(4-chlorophthalazin-1-yl)-6-(2-phenylethynyl)pyridin-2-yl]-2-(methylamino)propanamide] | 6.86 | 7.77
